In patent publication US9925222B2, “Gut barrier dysfunction treatment and prevention” (ALBERT EINSTEIN COLLEGE OF MEDICINE OF YESHIVA UNIVERSITY, priority 2012, dated 2018):

Assays:
[1] = system: Tnf-α, Zo-1 and E-cad mRNA expression in gut epithelium; test: Ex vivo treatment of gut mucosa with OLA, rescue with indole and IPA, qPCR; format: cell-based; settings: OLA 5 mg/ml, 3 h ex vivo; all mice genotypes
Description: Freshly isolated gut mucosa were incubated in the presence of OLA (5 mg/ml) for 3 h at 37° C., 5% CO2 (13). After 3 h of OLA treatment, enterocytes were isolated and pooled for RNA isolation. […] Experiments were performed at least two independent times. OLA has […] (log P), thus is unsuitable for in vivo studies of luminal bacterial enzyme inhibition (Pubchem, ST093573). 2.0 μg of total RNA extracted from pooled apical enterocytes with TRIzolR (Invitrogen), were reverse transcribed with random hexamer primers and SuperScriptTM III-RT enzyme (Invitrogen). Quantitative PCR (qPCR) reactions using TaqMan universal PCR master mix and TaqMan probes containing FAM as the 5' reporter fluorochrome and tetramethylrhodamine (MGB) as the 3' quencher fluorochrome, were performed in triplicate for each sample and analyzed on the ABI Prism 7900HT system. Primers and minor groove binder/non-fluorescent quencher probes used for PCR amplification were obtained from Applied Biosystems as well as the following assays on demand: […] Controls include RT-minus RNA samples. PCR reaction conditions for all assays were set at 50° C. for 2 minutes, 95° C. for 10 minutes, followed by 40 cycles of amplification (95° C. for 15 seconds then 60° C. for 1 minute).

[2] = Pubchem, ST093573; cited from earlier work

SMILES: NC(CC1C(=O)Nc2ccccc21)C(=O)O [OLA, Oxindolyl L-alanine]
- Enterocyte Tnf-α mRNA expression after OLA [1]: enhanced enterocyte Tnf-α mRNA expression
- Expression of junctional regulators (Zo-1 and E-cad) after OLA [1]: diminished expression of junctional regulators
- Predicted oral bioavailability (log P) [2]: high
